Measured values: US20240269206A1, “AMANITA […] EXTRACTS AND COMPOUNDS AND THEIR […] […] USE” (priority 2021, published 2024)
Where two headings read alike, the source gives them in different places.

Tests used:
[1] = test system: male CD [Crl:CD(SD)] rats; test: Conditioned place preference (CPP) study, abuse liability assessment; assay type: in vivo, rat; conditions: for Conditioned place preference score for CS+ (percentage of time in the 2 conditioning compartments), Mean / Conditioned place preference score for CS+, LSMean (least squares mean): 20 mg/kg oral gavage (positive control)
Procedure: Purpose: A conditioned place preference (CPP) study was conducted in rats to evaluate the abuse potential of exemplary aqueous A. muscaria extract AME-1. The CPP study is a standard behavioral model used for studying the reward and aversive effects of a compound and is designed to determine the reinforcing properties of drugs of abuse using classical Pavlovian conditioning. Accordingly, the CPP paradigm provides for a rapid measurement of the positive reinforcing or aversive properties of a test sample, in this case, AME-1.
Methods: Four treatment groups of 8 male CD® [Crl:CD®(SD)] rats were exposed to unique environmental cues associated with a conditioned stimuli (CS+) or saline (CS−) in a 3-chamber straight alleyway system. Following a habituation phase (Week −1) during which compartment preference was determined for each animal, the conditioning phase (Week 1 and Week 2) was conducted during which compartments 1 and 3 were paired with the test and control articles or saline. Saline (CS−) and test/control articles (CS+, at 800 and 1100 mg/kg of exemplary A. muscaria aqueous extract AME-1 or 20 mg/kg cocaine) were administered via oral gavage at a dose volume of 5 mL/kg. After two sets of conditioning trials during the conditioning phase, each rat was retested for free-choice side preference (Days 5 and 12). Each rat received eight stimulus environmental pairing sessions (e.g., four test article and four saline) and two CPP test sessions (T1, T2). The study design was as follows:
The following parameters and endpoints were evaluated in this study: mortality, clinical signs, body weights, and CPP testing. During CPP testing sessions, the following parameters were assessed: 1) Total time spent in the black and/or white (Compartment 1 and 3) compartments, which were used to calculate the “preference score,” and these values expressed as a percentage of time in the two conditioning compartments; 2) Total number of beam breaks in each conditioning compartment; and 3) Preference score expressed as a percentage of time in the 2 conditioning compartments. Only preference scores for the CS+ expressed as a percentage of time in the 2 conditioning compartments were reported. A CPP was determined when the test subject spent more time in the test sample-paired compartment versus the vehicle-paired compartment. Conversely, a conditioned place aversion (CPA) was determined when the test subject spent more time in the vehicle-paired compartment versus the sample-paired compartment. Therefore, possible outcomes included whether AME-1 causes a dependence, an aversive effect, or no effect. The total time spent in the nonpreferred compartment+total time spent in both conditioning compartments was expressed as a percentage, and used as a measure of “side preference.” Side preference infers a hedonic valence for the environmental cues of the compartment. Initial side preferences/biases (Habituated Score-H) were used to determine which of two compartments would be paired with the targeted interoceptive states. After two CS-UCS pairings, groups were retested for side preference (Test 1-1; Test 2-2). A significant change score from the initial habituation test scores reflected a conditioned place approach (* p<0.05).

[2] = after ingestion of Amanita mushrooms; cited from earlier work
[3] = stomach, liver and brain; cited from earlier work
[4] = test system: levels of serotonin (5-hydroxytryptamine), noradrenaline and dopamine in the brain; conditions: male rats and mice, cited from earlier work
[5] = test system: GABA receptor; conditions: cited from earlier work; for Mechanism of action at the GABA receptor: Brehm et al., Walker et al.
[6] = cited from earlier work

Question: With `COC(=O)[C@H]1[C@@H](OC(=O)c2ccccc2)C[C@@H]2CC[C@H]1N2C` [Cocaine] as the molecule, how does the “Conditioned place preference score for CS+ (percentage of time in the 2 conditioning compartments), Mean” value ([1]; Habituation) read?
Answer: The value was 39.593.

Question: And the “Conditioned place preference score for CS+, LSMean (least squares mean)” value ([1]; Habituation)?
Answer: The value was 39.162.

Question: And the “Conditioned place preference score for CS+ (percentage of time in the 2 conditioning compartments), Mean” value ([1]; Overall)?
Answer: Its value is 49.665.

Question: What about the “Conditioned place preference score for CS+, LSMean (least squares mean)” value ([1]; Overall, different from Groups 1 and 3, p < 0.05) of the same molecule?
Answer: Its value is 49.639^a, f.

Question: And the “Conditioned place preference score for CS+ (percentage of time in the 2 conditioning compartments), Mean” value ([1]; Test 1)?
Answer: Its value is 61.194.

Question: What about the “Conditioned place preference score for CS+, LSMean (least squares mean)” value ([1]; Test 1) of the same molecule?
Answer: The value was 61.877.

Question: And the “Conditioned place preference score for CS+ (percentage of time in the 2 conditioning compartments), Mean” value ([1]; Test 2)?
Answer: Its value is 48.208.

Question: And the “Conditioned place preference score for CS+, LSMean (least squares mean)” value ([1]; Test 2)?
Answer: Its value is 47.822.

Question: And the “Outcome of CPP testing: conditioned place preference” value ([1]; 20 mg/kg oral gavage, positive control)?
Answer: The value was “did produce a CPP”.

Question: For `N[C@H](C(=O)O)c1cc(O)no1` [ibotenic acid, (S)-2-Amino-2-(3-hydroxyisoxazol-5-yl) acetic acid], which “Time of detection in urine after ingestion” value [2] is on record?
Answer: The value was “detected within an hour after ingestion”.

Question: What about the Metabolic fate [3] of the same molecule?
Answer: Its Metabolic fate is “metabolized by decarboxylation in the stomach, liver, and brain to equal amounts of muscimol”.

Question: And the “Effect on brain levels of serotonin, noradrenaline and dopamine” value ([4]; 16 mg/kg intraperitoneally)?
Answer: The value was “affect the levels of serotonin (5-hydroxytryptamine), noradrenaline and dopamine in the brain”.

Question: What about the “Mechanism of action at the GABA receptor” value [5] of the same molecule?
Answer: The value was “activation of the GABA receptor”.

Question: Which results are given for `NCc1cc(=O)[nH]o1` [muscimol, 5-(Aminomethyl)-1,2-oxazol-3(2H)-one]?
Answer: Time of detection in urine after ingestion [2]: detected within an hour after ingestion; Amount of the dose injected that crossed to the brain ([6]; IV 8 μmol/kg 3H-muscimol, 150 g male Sprague Dawley rat): approximately 0.02%; Muscimol amount in the brain ([6]; IV 8 μmol/kg 3H-muscimol, male Sprague Dawley rat): approximately 200 pmol/g tissue; Distribution at various brain regions ([6]; IV 8 μmol/kg, male Sprague Dawley rat): highest muscimol concentration being in the substantia nigra, the colliculi and the hypothalamus; Time until blood concentration was below limits of detection ([6]; after intravenous injection, rat): ≤ 180 min; Distribution in the corneum stratum compared to the hypothalamus, hippocampus and cortex ([6]; intracerebroventricular injection 1200 nmol/kg, rat): approximately 2 times; Tolerability (reports of adverse effects or toxicity) ([6]; intravenous injection 8 μmol/kg, rat): well-tolerated; Effect on brain levels of serotonin, noradrenaline and dopamine ([4]; 3 mg/kg intraperitoneally): affect the levels of serotonin (5-hydroxytryptamine), noradrenaline and dopamine in the brain; Mechanism of action at the GABA receptor [5]: activation of the GABA receptor; GABA agonist affinity and efficacy ([5]; Worms et al.): GABA agonist of high affinity but of relatively low efficacy
